Source: patent publication US4668674A, “(+)-6-chloro-5,10-dihy dro-5-[(1-methyl-4-piperidinyl)-acetyl]-11H-dibenzo[b,][1,4]diazepin-11-o ne, the isolation thereof and its use as a pharmaceutical material” (Dr. Karl Thomae GmbH, priority 1985, dated 1987)
Values belong to the molecule of their own block, whether it stands above or below them.

Columns and labels:
[1] = ambient temperature; Arzneim.-Forsch./Drug Res. 34(II), 8, 849-859 (1984); cited from earlier work
Racemisation Test = assay type: physicochemical
[2] = system: volume and total acid secretion; test: Effect on rats after ligature of the pylorus (gastric juice volume and total acid); assay type: in vivo, Male Wistar rats; settings: rat, i.v.; for ED50 value: given immediately before pylorus ligature, 2 hours, 120 min
Procedure: Effect on rats after ligature of the pylorus
Male Wistar rats (weighing between 100 and 125 g) which had fasted for 24 hours but had free access to water was used. The rats were divided up into groups of 10 animals. The rats were anaesthetised with ether and the abdominal cavity was opened up by longitudinal cutting and the pylorus was tied off. Before ligature of the pylorus, the substances dissolved in saline solution were administered intravenously in metered doses (0.1 ml/100 g of body weight), the intravenous administration was carried out immediately before ligature of the pylorus; control animals were given only the saline solution. Two hours after the ligature the animals were killed and the stomachs were carefully removed. The stomach contents were collected and centrifuged for 15 minutes at 4000 rpm, then the supernatant was separated off in order to determine the volume of gastric juices. Using a pH measuring apparatus (I.T.T. Radiometer PHM 62) the acidity was measured by titration to pH 7 of 1 ml samples of the gastric juices.
The total acid was calculated from the product of the measured volume and acidity (microequivalent.ml) and expressed as microequivalents over 2 or 4 hours. The data obtained from the individual pretreated rats were compared with the average values obtained from the control groups and expressed as the percentage deviation. The percentage values were transformed into probits and subjected to linear regression analysis in order to determine the ED50 values for volume and total acid secretion, whilst observing 95% confidence limits.

[3] = system: secretion of gastric acid; test: Anti-ulcerative effect, inhibition of gastric acid secretion and effect on other gastro-intestinal diseases (general statement); assay type: in vivo; settings: for physiological/biological effectiveness: statement in words
[4] = pH 1 to 9, water, glycol, melt, up to 150° C., fifteen minutes

Structure (SMILES): CN1CCN(CC(=O)N2c3ccccc3C(=O)Nc3cccnc32)CC1 [pirenzepine]
interconversion of enantiomeric forms [1]: rapidly interconvert

stability of enantiomeric forms (Racemisation Test; ambient temperature): stable at ambient temperature
Structure (SMILES): CN1CCC(CC(=O)N2c3ccccc3C(=O)Nc3cccc(Cl)c32)CC1 [formula I, 6-chloro-5,10-dihydro-5-[(1-methyl-4-piperidinyl)-acetyl]-11H-dibenzo[b,e][1,4]diazepin-11-one]

Structure (SMILES): CN1CCC(CC(=O)N2c3ccccc3C(=O)Nc3cccc(Cl)c32)CC1 [(-) form]
deviation from the average values of untreated control groups ([2]; 3 mg/kg): 1.6% | ED50 value [2]: > 3 mg/kg | quantity required to achieve the same results ([3]; (-) form, to achieve the same results): at least 50 times

formation of (-) enantiomer (HPLC) (Racemisation Test; [4]): no (-) enantiomer had formed | optical rotation on heating (Racemisation Test; [4]): remained constant | racemisation (Racemisation Test; [4]): no racemisation
Structure (SMILES): CN1CCC(CC(=O)N2c3ccccc3C(=O)Nc3cccc(Cl)c32)CC1 [(+) form, (+)-6-Chloro-5,10-dihydro-5-[(1-methyl-4-piperidinyl)-acetyl]-11H-dibenzo[b,e][1,4]diazepin-11-one]
ED50 value [2]: 0.18 mg/kg | activity in the pylorus ligature experiment ([2]; conclusion in words): the form which carries the activity | dosage needed to achieve the same results, relative to the mixture of enantiomers ([3]; compared with the mixture of enantiomers): approximately only half the dosage | effect on various other diseases of the gastro-intestinal tract ([3]; particularly low bowel distress symptoms): favourable effect on various other diseases of the gastro-intestinal tract | physiological/biological effectiveness [3]: physiologically highly effective | physiological/biological effectiveness ([3]; listed as Ia): biologically effective form | anti-ulcerative effect ([3]; unlike the (-) form): Powerful anti-ulcerative effect | effect on the secretion of gastric acid ([3]; unlike the (-) form): inhibitory effect on the secretion of gastric acid
